Data as given in patent publication US20070093476A1, “Novel compounds and their use in medicine,as antidiabetic and hypolipidemic agents, process for their preparation and pharmaceutical compositions containing them” (priority 2003, published 2007).
Counter-ions that a name gives are not always drawn. Like-named read-outs stand apart in the source and are kept apart here.

How the values were obtained:
hPPARα = molecular target: T1, hPPARα (Homo sapiens, UniProt Q07869); assay: Determination of hPPARα activity (GAL4-LBD luciferase reporter transactivation in HEK-293 cells); type: cell-based; conditions: 50 μM compound
T1 construct: expressed in transfected cells; host or cells: HEK-293
T1 sequence (Q07869 239-466 limits assumed): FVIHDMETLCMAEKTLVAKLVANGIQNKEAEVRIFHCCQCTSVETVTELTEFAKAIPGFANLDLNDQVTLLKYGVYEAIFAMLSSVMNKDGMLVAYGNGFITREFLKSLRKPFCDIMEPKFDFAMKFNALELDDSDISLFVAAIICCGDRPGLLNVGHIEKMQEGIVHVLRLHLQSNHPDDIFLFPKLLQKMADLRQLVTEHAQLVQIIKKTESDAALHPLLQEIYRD
Experimental: a) Determination of hPPARα Activity Ligand binding domain of hPPARα was fused to […] of Yeast transcription factor GAL4 in eucaryotic expression vector. Using superfect (Qiagen, Germany) as transfecting reagent HEK-293 cells are transfected with this plasmid and a reporter plasmid harboring the luciferase gene driven by a GAL4 specific promoter. Compound can be added at different concentrations after 42 hrs of transfection and incubated overnight. Luciferase activity as a function of compound binding/activation capacity of PPARα will be measured using Packard Luclite kit (Packard, USA) in Top Count (Ivan Sadowski, Brendan Bell, Peter Broag and Melvyn Hollis. Gene. 1992. 118 : 137-141; Superfect Transfection Reagent Handbook. February 1997. Qiagen, Germany).

hPPARγ1 = molecular target: T2, hPPARγ1 (Homo sapiens, UniProt P37231); assay: Determination of hPPARγ activity (GAL4-LBD luciferase reporter transactivation in HEK-293 cells); type: cell-based; conditions: 1 μM compound
T2 construct: expressed in transfected cells; host or cells: HEK-293
T2 sequence (P37231 238-503 limits assumed): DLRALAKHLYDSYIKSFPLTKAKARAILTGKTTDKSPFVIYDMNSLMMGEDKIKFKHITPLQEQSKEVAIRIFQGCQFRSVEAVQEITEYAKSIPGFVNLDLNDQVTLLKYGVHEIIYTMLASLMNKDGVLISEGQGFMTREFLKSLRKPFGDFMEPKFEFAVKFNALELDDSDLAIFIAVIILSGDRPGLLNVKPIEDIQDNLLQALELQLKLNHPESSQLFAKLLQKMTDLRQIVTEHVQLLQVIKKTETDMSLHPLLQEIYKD
Experimental: b) Determination of hPPARγ Activity
Ligand binding domain of hPPARγ1 is fused to DNA binding domain of Yeast transcription factor GAL4 in eucaryotic expression vector. Using lipofectamine (Gibco BRL, USA) as transfecting reagent HEK-293 cells are transfected with this plasmid and a reporter plasmid harboring the luciferase gene driven by a GAL4 specific promoter. Compound can be added at 1 μM concentration after 48 hrs of transfection and incubated overnight Luciferase activity as a function of drug binding/activation capacity of PPARγ1 will be measured using Packard Luclite kit (Packard, USA) in Packard Top Count (Ivan Sadowski, Brendan Bell, Peter Broag and Melvyn Hollis. Gene. 1992. 118 : 137-141; Guide to Eukaryotic Transfections with Cationic Lipid Reagents. Life Technologies, GIBCO BRL, USA).

Swiss albino mice = assay: Plasma triglyceride lowering activity in Swiss albino mice; type: in vivo; conditions: Mus musculus, 144 h, read-out: % of Reduction in Triglyceride
Experimental: b) Plasma Triglyceride and Total Cholesterol Lowering Activity in Swiss Albino Mice and Guinea Pigs
Male Swiss albino mice (SAM) and male Guinea pigs are obtained from NIN and housed in DRF animal house. All these animals are maintained under 12 hour light and dark cycle at 25±1° C. Animals are given standard laboratory chow (NIN, Hyderabad, India) and water, ad libitum. SAM of 20-25 g body weight range and Guinea pigs of 500-700 g body weight range are used (Oliver, P., Plancke, M. O., Marzin, D., Clavey, V., Sauzieres, J and Fruchart, J. C. Effects of fenofibrate, gemfibrozil and nicotinic acid on plasma lipoprotein levels in normal and hyperlipidemic mice. Atherosclerosis. 1988. 70 : 107-114).
The test compounds can be administered orally to Swiss albino mice at 0.3 to 30 mg/kg/day dose for 6 days. Control mice are treated with vehicle (0.25% Carboxymethylcellulose; dose 10 ml/kg). The test compounds are administered orally to Guinea pigs at 0.3 to 30 mg/kg/day dose for 6 days. Control animals are treated with vehicle (0.25% Carboxymethylcellulose; dose 5 ml/kg).
The blood samples can be collected in fed state 1 hour after drug administration on 0 and 6 day of treatment. The blood can be collected from the retro-orbital sinus through heparinised capillary in EDTA containing tubes. After centrifugation, plasma sample was separated for triglyceride and total cholesterol (Wieland, O. Methods of Enzymatic analysis. Bergermeyer, H. O., Ed., 1963. 211-214; Trinder, P. Ann. Clin. Biochem. 1969. 6 : 24-27). Measurement of plasma triglyceride, total cholesterol and HDL are done using commercial kits (Dr. Reddy's Diagnostic Division, Hyderabad, India).

C57BL/KsJ-db/db mice = assay: Efficacy in genetic model: plasma glucose and triglyceride lowering in db/db mice; type: in vivo; conditions: 3 mg/kg/d oral gavage, 6 days
Text: a) Efficacy in Genetic Models
Mutation in colonies of laboratory animals and different sensitivities to dietary regimens have made the development of animal models with non-insulin dependent diabetes and hyperlipidemia associated with obesity and insulin resistance possible. Genetic models such as db/db and ob/ob (Diabetes, (1982) 31(1) : 1-6) mice and zucker fa/fa rats have been developed by the various laboratories for understanding the pathophysiology of disease and testing the efficacy of new antidiabetic compounds (Diabetes, (1983) 32: 830-838; Annu. Rep. Sankyo Res. Lab. (1994). 46: 1-57). The homozygous animals, C57 BL/KsJ-db/db mice developed by Jackson Laboratory, US, are obese, hyperglycemic, hyperinsulinemic and insulin resistant (J. Clin. Invest., (1990) 85 : 962-967), whereas heterozygous are lean and normoglycemic. […]
The random blood sugar and triglyceride levels can be measured by collecting blood (100 μl) through orbital sinus, using heparinised capillary in tubes containing EDTA which was centrifuged to obtain plasma. The plasma glucose and triglyceride levels can be measured spectrometrically, by glucose oxidase and glycerol-3-PO4 oxidase/peroxidase enzyme (Dr. Reddy's Lab. Diagnostic Division Kits, Hyderabad, India) methods respectively.

[1] = Swiss albino mice, 3 mg/kg/d oral, 6 days

| SMILES | PPAR fold activation, PPAR α at 50 μM concentration (hPPARα) [fold] | melting point [°C] | PPAR fold activation, PPAR γ at 1 μM concentration (hPPARγ1) [fold] | inhibition in vivo at 3 mg/kg/day (Swiss albino mice; [1]) [%] | % of Reduction in Triglyceride (C57BL/KsJ-db/db mice) [%] | % of reduction in Plasma glucose (C57BL/KsJ-db/db mice) [%] | inhibition in vivo at 3 mg/kg/day (Swiss albino mice; po) [%] |
| --- | --- | --- | --- | --- | --- | --- | --- |
| CCOC(=O)C(Cc1ccc(NCc2ccc3cc(OS(C)(=O)=O)ccc3c2)cc1)OCC (stereo not shown) [Example 2, Ethyl 2-ethoxy-3-[4-{6-methanesulfonyloxynapth-2-ylmethylamino}phenyl]propanoate] | 3.5 | 118 to 120 | 15.5 | 50 | – | – | – |
| CCOC(Cc1ccc(NCc2ccc3cc(OS(C)(=O)=O)ccc3c2)cc1)C(=O)O (stereo not shown) [Example 24, 2-Ethoxy-3-[4-{6-methanesulfonyloxynapth-2-ylmethylamino}phenyl]propanoic acid] | 7.4 | 168 to 170 | 4.5 | 46 | – | – | – |
| CO[C@@H](Cc1ccc(NCc2ccc3cc(OS(C)(=O)=O)ccc3c2)cc1)C(=O)O [Example 45, (S)-2-Methoxy-3-[4-{6-methanesulfonyloxynapth-2-ylmethylamino}phenyl]propanoic acid Arginine salt] | 5.2 | – | 1.4 | – | 28 | 32 | 60 |
| CCOC(Cc1ccc(NCCCn2ccc3ccccc32)cc1)C(=O)O (stereo not shown) [Example 47, 2-Ethoxy-3-[4-{3-(indol-1-yl)propylamino}phenyl]propanoic acid Arginine salt] | 4.8 | – | 6.7 | – | – | – | 60 |
| CO[C@@H](Cc1ccc(NCCCn2ccc3ccccc32)cc1)C(=O)O [Example 48, (S)-2-Methoxy-3-[4-{3-(indol-1-yl)propylamino}phenyl]propanoic acid Arginine salt] | 4.6 | – | 6.1 | – | – | – | 27 |
| CCO[C@@H](Cc1ccc(NCCCn2ccc3cc(OS(C)(=O)=O)ccc32)cc1)C(=O)O [Example 49, (S)-2-Ethoxy-3-[4-{3-(5-methanesulfonyloxyindol-1-yl)propylamino}phenyl]propanoic acid Arginine salt] | 3.6 | – | 1.5 | – | – | – | 54 |
| CO[C@@H](Cc1ccc(NCCCn2ccc3cc(OS(C)(=O)=O)ccc32)cc1)C(=O)O [Example 50, (S)-2-Methoxy-3-[4-{3-(5-methanesulfonyloxyindol-1-yl)propylamino}phenyl]propanoic acid Arginine salt] | 3.5 | – | 1.4 | – | – | – | 31 |
| CCOC(Cc1ccc(NCC2CCc3cc(OS(C)(=O)=O)ccc3C2)cc1)C(=O)O (stereo not shown) [Example 53, 2-Ethoxy-3-[4-{(6-methanesulfonyloxy-1,2,3,4-tetrahydronapth-2-yl)methylamino}phenyl]propanoic acid Arginine salt] | 3.7 | – | 5.8 | – | – | – | 79 |
| CCOC(Cc1ccc(NCCCN2CCCc3ccccc32)cc1)C(=O)O (stereo not shown) [Example 55, 2-Ethoxy-3-[4-{3-1,2,3,4-tetrahydroquinolyn-1-yl)propylamino}phenyl]propanoic acid Arginine salt] | 3.8 | – | 11.9 | – | – | – | 60 |
